Experimental data published in ChEMBL document CHEMBL1201862, “PubChem BioAssay data set” (2004).
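Results reflect a 48-hour exposure of cells in 96-well plates to compound at five concentrations. At the GI50, growth is halved.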 Calls of active or inactive are those of the source. Rule as the data show it: active = GI50 up to about 1.1 µM and inactive = higher.

Experiments:
Assay in all cases: NCI anticancer screen, dose series, 48 h
SK-MEL-2 = test system: SK-MEL-2
HCC 2998 = test system: HCC 2998
MDA-MB-231 = test system: MDA-MB-231
OVCAR-8 = test system: OVCAR-8
SW-620 = test system: SW-620
SN12C = test system: SN12C
T47D = test system: T47D
OVCAR-3 = test system: OVCAR-3
Malme-3M = test system: Malme-3M
HCT-15 = test system: HCT-15
NCI-H23 = test system: NCI-H23
ACHN = test system: ACHN
U-251 = test system: U-251
PC-3 = test system: PC-3
SNB-75 = test system: SNB-75
SK-MEL-28 = test system: SK-MEL-28
UACC-62 = test system: UACC-62
NCI-H460 = test system: NCI-H460
SNB-19 = test system: SNB-19
DU-145 = test system: DU-145
A549 = test system: A549
SK-MEL-5 = test system: SK-MEL-5
SF-268 = test system: SF-268
IGROV-1 = test system: IGROV-1
CAKI-1 = test system: CAKI-1
Hs-578T = test system: Hs-578T
UO-31 = test system: UO-31
A498 = test system: A498
UACC-257 = test system: UACC-257
786-0 = test system: 786-0
NCI-H226 = test system: NCI-H226
COLO 205 = test system: COLO 205
HT-29 = test system: HT-29
LOX IMVI = test system: LOX IMVI
HOP-92 = test system: HOP-92
SR = test system: SR
TK-10 = test system: TK-10
KM12 = test system: KM12
RPMI-8226 = test system: RPMI-8226
K562 = test system: K562
CCRF-CEM = test system: CCRF-CEM
M14 = test system: M14
NCI/ADR-RES = test system: NCI/ADR-RES
NCI-H522 = test system: NCI-H522
MDA-MB-435 = test system: MDA-MB-435
BT-549 = test system: BT-549
HCT-116 = test system: HCT-116
OVCAR-4 = test system: OVCAR-4
HOP-62 = test system: HOP-62
MDA-N = test system: MDA-N
HL-60 = test system: HL-60
OVCAR-5 = test system: OVCAR-5
SF-295 = test system: SF-295
SK-OV-3 = test system: SK-OV-3
RXF 393 = test system: RXF 393
EKVX = test system: EKVX
MOLT-4 = test system: MOLT-4
SF-539 = test system: SF-539
MCF7 = test system: MCF7

Measured: GI50

COc1cc(C2C(C#N)=C(N)OC3=C2CCS(=O)(=O)c2ccc(C)cc23)cc(OC)c1OC (stereo not drawn)
inactive: SK-MEL-2 > 100 µM | HCC 2998 > 100 µM | MDA-MB-231 > 100 µM | OVCAR-8 > 100 µM | SW-620 > 100 µM | SN12C > 100 µM | T47D > 100 µM | OVCAR-3 > 100 µM | Malme-3M > 100 µM | NCI-H23 > 100 µM | ACHN > 100 µM | U-251 > 100 µM | PC-3 > 100 µM | SNB-75 > 100 µM | SK-MEL-28 > 100 µM | UACC-62 > 100 µM | NCI-H460 > 100 µM | SNB-19 > 100 µM | DU-145 > 100 µM | A549 > 100 µM | SK-MEL-5 > 100 µM | SF-268 > 100 µM | IGROV-1 > 100 µM | CAKI-1 > 100 µM | Hs-578T > 100 µM | UO-31 > 100 µM | A498 > 100 µM | UACC-257 > 100 µM | 786-0 > 100 µM | NCI-H226 > 100 µM | COLO 205 > 100 µM | HT-29 > 100 µM | LOX IMVI > 100 µM | HOP-92 > 100 µM | SR 47.8 µM | TK-10 > 100 µM | KM12 > 100 µM | RPMI-8226 > 100 µM | K562 > 100 µM | CCRF-CEM > 100 µM | M14 > 100 µM | NCI/ADR-RES > 100 µM | NCI-H522 > 100 µM | MDA-MB-435 > 100 µM | BT-549 > 100 µM | HCT-116 > 100 µM | OVCAR-4 > 100 µM | HOP-62 > 100 µM | MDA-N > 100 µM | HL-60 > 100 µM | OVCAR-5 > 100 µM
> 100 µM: HCT-15

O=C1c2ccccc2C(=O)c2cc(/N=N/c3c(O)ccc4ccccc34)ccc21
inactive: SK-MEL-2 > 100 µM | MDA-MB-231 > 100 µM | OVCAR-8 > 100 µM | SW-620 > 100 µM | SF-295 > 100 µM | SK-OV-3 > 100 µM | SN12C > 100 µM | T47D > 100 µM | OVCAR-3 > 100 µM | Malme-3M > 100 µM | NCI-H23 > 100 µM | ACHN > 100 µM | RXF 393 > 100 µM | U-251 56.4 µM | PC-3 > 100 µM | SNB-75 > 100 µM | SK-MEL-28 > 100 µM | UACC-62 > 100 µM | SNB-19 > 100 µM | DU-145 > 100 µM | A549 > 100 µM | SK-MEL-5 > 100 µM | SF-268 30.1 µM | IGROV-1 > 100 µM | CAKI-1 > 100 µM | Hs-578T 27.7 µM | UO-31 > 100 µM | A498 > 100 µM | UACC-257 > 100 µM | 786-0 > 100 µM | NCI-H226 > 100 µM | COLO 205 > 100 µM | HT-29 > 100 µM | LOX IMVI > 100 µM | HOP-92 > 100 µM | SR > 100 µM | TK-10 > 100 µM | KM12 > 100 µM | RPMI-8226 > 100 µM | EKVX 89.7 µM | MOLT-4 > 100 µM | K562 > 100 µM | CCRF-CEM > 100 µM | M14 > 100 µM | NCI/ADR-RES > 100 µM | NCI-H522 > 100 µM | MDA-MB-435 > 100 µM | BT-549 > 100 µM | HCT-116 > 100 µM | OVCAR-4 > 100 µM | HOP-62 30.2 µM | MDA-N > 100 µM | OVCAR-5 > 100 µM
> 100 µM: HCT-15

COC1CC(=O)C2C(=O)N(c3ccccc3)C(=O)C23C(C(=O)c2ccccc2)=C(C)NC13O (stereo not drawn)
8.49 µM: HCT-15
inactive: SK-MEL-2 17.1 µM | MDA-MB-231 17.1 µM | SF-539 5.32 µM | OVCAR-8 21.1 µM | SW-620 5.02 µM | SF-295 32.4 µM | SK-OV-3 19.9 µM | SN12C 16.6 µM | T47D 2.92 µM | OVCAR-3 2.12 µM | Malme-3M 1.43 µM | NCI-H23 15.3 µM | ACHN 12.9 µM | U-251 17.3 µM | PC-3 10.4 µM | SK-MEL-28 11 µM | UACC-62 16.4 µM | NCI-H460 21.7 µM | SNB-19 21.4 µM | DU-145 13.5 µM | A549 34.4 µM | SK-MEL-5 18.6 µM | SF-268 3.84 µM | IGROV-1 10.4 µM | CAKI-1 4.6 µM | Hs-578T 22.2 µM | UO-31 11.4 µM | A498 17.2 µM | UACC-257 22.9 µM | 786-0 2.12 µM | COLO 205 12.3 µM | HT-29 16.9 µM | LOX IMVI 13.4 µM | TK-10 6.32 µM | KM12 18 µM | RPMI-8226 5.08 µM | EKVX 17.4 µM | CCRF-CEM 3.69 µM | M14 15.5 µM | NCI/ADR-RES 20.9 µM | NCI-H522 1.91 µM | MCF7 4.06 µM | MDA-MB-435 14.5 µM | BT-549 23.3 µM | HCT-116 9.2 µM | OVCAR-4 4.92 µM | HOP-62 20.2 µM | MDA-N 18.7 µM | OVCAR-5 18.9 µM
active: HOP-92 < 0.01 µM | K562 < 0.01 µM
